# Patent US20260216177A1, “CO-DRUG, CO-ADMINISTRATION, AND SEQUENTIAL ADMINISTRATION OF SELECTIVE TTR LIGAND AND C20-D3-RETINOL FOR ELIMINATION OF MECHANISM-BASED OCULAR ADVERSE EFFECTS IN TREATING MACULAR DEGENERATION AND TTR AMYLOIDOSIS” (The Trustees of Columbia University in the City of New York, priority 2023, published 2026)
# Entries after “also recorded” stand apart in the source; their conditions may differ.
# Experiments:
# [1] = molecular target: RBP4 (Homo sapiens, UniProt P02753); conditions: cited from earlier work
# [2] = tested on: rhodopsin; test: Rhodopsin measured spectrophotometrically in retinal extracts of treated Balb/c mice; type: in vivo; conditions: Balb/c (wild-type) mice, 25 mg/kg daily oral, 10 days
# Description: Thus, ACPHS-14 was used as a representative “first component” of the present disclosure in order to assess the feasibility of using β-carotene as the “second component” in the co-drug strategy. Accordingly, an experiment was conducted to determine whether partial reduction in functional rhodopsin (opsin with conjugated 11-cis-retinal) induced by oral ACPHS-14 in mice can be compensated by co-administration with β-carotene. An experiment was also conducted to determine whether co-administration of ACPHS-14 and β-carotene can restore retinal function as can be assessed by electroretinography (ERG). It was previously reported that ACPHS-14 can induce a pronounced reduction in serum RBP4 along with stabilization of TTR tetramers (Cioffi, C. L. et al. 2021).
# The experiments were conducted in Balb/c mice. Three groups of mice were used: control untreated mice; mice treated with ACPHS-14; and mice treated with the ACPHS-14 plus β-carotene combination. […] Following compound dosing, retinal function in the mice was assessed by ERG as previously described (Racz, B. et al. 2018). […] Rhodopsin was measured spectrophotometrically in the retinal extracts using a previously published protocol (Racz, B. et al. 2018).
# [3] = in vivo; cited from earlier work
# [4] = tested on: Balb/c mice; test: Retinal function by electroretinography (scotopic ERG a-wave) in treated Balb/c mice; type: in vivo; conditions: 1.89 log cd*s/m2 light intensity; 25 mg/kg daily oral, 10 days
# Description: The experiments were conducted in Balb/c mice. Three groups of mice were used: control untreated mice; mice treated with ACPHS-14; and mice treated with the ACPHS-14 plus β-carotene combination. ACPHS-14 was administered through oral gavage at a 25 mg/kg dose formulated into the chow to ensure a standard daily oral dosing of the compound at the 25 mg/kg dose. β-carotene was dissolved in olive oil and was administered through oral gavage daily at a daily 6 mg/kg dose. Dosing duration was 10 days. Following compound dosing, retinal function in the mice was assessed by ERG as previously described (Racz, B. et al. 2018).
# [5] = tested on: Abca4-/- mouse model; conditions: cited from earlier work
# [6] = tested on: serum RBP4; conditions: mice; cited from earlier work
# [7] = molecular target: TTR tetramers (Homo sapiens, UniProt P02766); conditions: cited from earlier work
# [8] = in vitro; cited from earlier work
# [9] = cited from earlier work
# [10] = cited from earlier work; remark: listed apart in the source
# [11] = ATTR-CM patients, Phase III; cited from earlier work
# [12] = Phase 2, dry AMD patients; no ocular AEs with placebo; cited from earlier work
# [13] = long-term use in cancer patients; cited from earlier work
# [14] = patients treated for TTR amyloidosis; cited from earlier work
molecule,measurement,setting,value
Cc1n[nH]c(C)c1N1CCN(c2cc(C(=O)O)ccc2F)CC1 [ACPHS-14],competition with retinol binding to RBP4,[1],does not compete with retinol binding to RBP4
same,rhodopsin in comparison to untreated mice,[2],significantly reduced rhodopsin
same,oral bioavailability,[3],orally bioavailable
same,reduction of scotopic ERG a-wave amplitude in comparison to untreated mice,[4],45%
same,bisretinoid reduction,[5]; Abca4-/- mouse model,excellent bisretinoid reduction
same,RBP4-lowering efficacy,[6],excellent RBP4-lowering efficacy; also recorded: significantly decreasing the concentration of serum RBP4
same,stabilization of TTR tetramers,[7],inducing stabilization of TTR tetramers
[2H]C([2H])([2H])C(/C=C/C=C(C)/C=C/C1=C(C)CCCC1(C)C)=C\C=O [C20-D3-retinaldehyde],rate of dimer formation relative to unlabeled retinaldehyde (times less rapidly),[8],12 times
same,reduction of bisretinoid A2E formation,[8],7 fold
[2H]C([2H])([2H])C(/C=C/C=C(C)/C=C/C1=C(C)CCCC1(C)C)=C\COC(C)=O [C20-D3-retinyl acetate],inhibition of bisretinoid synthesis and normalization of complement system dysregulation in the retina,"[5]; Abca4-/- mice, model of Stargardt disease (STGD1)",effective
CC(=O)N1CCc2c(C(=O)N3CCC(c4ccc(F)c(F)c4C(F)(F)F)CC3)n[nH]c2C1 [Tinlarebant],ocular adverse effects in a subset of patients,[9],asymptomatic delayed dark adaptation (measured only instrumentally) or symptomatic xanthopsia
"O=C(O)c1ccc2nc(-c3cc(Cl)cc(Cl)c3)oc2c1 [compound 3, tafamidis]",patients who do not respond,[10],Approximately 30%
same,reduction of the rate of cardiovascular-related hospitalizations compared to placebo controls,[11],32%
same,reduction of the risk of death compared to placebo controls,[11],30%
CC1=C(/C=C/C(C)=C/C=C/C(C)=C/C(=O)Nc2ccc(O)cc2)C(C)(C)CCC1 [fenretinide],drug-treated patients with reversible reduction in dark adaptation,[12],~ 10%
same,yearly prevalence of transient and reversible ocular AEs such as diminished dark adaptation,[13],5.8-6.7%
patisiran,ocular symptoms in clinical use,[14],symptoms of night blindness in a subset of patients
